Data published in article PMC9945865, “Anticancer evaluation of new organometallic ruthenium(II) flavone complexes” (RSC Medicinal Chemistry, 2022).

Assays:
HUVECs = assay: Matrigel endothelial cell tube formation assay (VEGF-mediated); format: cell-based, human; conditions: 12 h; for tube formation inhibition activity: 1 μM
Method: In our recent study,[30] the 4′-chlorophenylflavone derivatives 1 and 2 have shown promising antiangiogenic activities in vitro. Herein, the effect of complexation with a ruthenium(II) metal ligand on the antiangiogenic activity of 1 and 2 was evaluated using the Matrigel tube formation assay that assesses many of the main steps involved in the process of angiogenesis. Inhibition of VEGF-mediated tube formation by the tested substrates was observed after 12 h of treatment on HUVECs at 1 μM and 10 μM concentrations. Luteolin is a natural flavone well known for its high antiangiogenic activity both in vitro and in vivo[34] and as such was used in this study as a reference standard. In accordance with reported data, luteolin inhibited the measured elements of tube formation by 30% compared to the positive control.[34,35] […] The ability of Ru(II) organometallic derivatives to target tumour metastasis has been widely reported both in vitro and in vivo.[3,6,9,36] Thus, based on the preliminary antiangiogenic trends observed for our target Ru(II) complexes (1Ru and 2Ru) and their parent flavones (1 and 2), we further investigated their antiproliferative and antimetastatic potential on the estrogen receptor positive breast cancer cell line (MCF-7) and the more aggressive triple negative cell line (MDA-MB-231).
HUVECs were cultured until confluency and then serum starved (0.1% serum) for 24 h. The tube formation assay followed the reported assay.[56] Briefly, 96 well plates were coated with 50 μL of Corning™ Matrigel™ GFR Membrane Matrix at 4 °C and incubated at 37 °C for 1–2 h to solidify. Serum starved HUVECs were seeded on the solidified Matrigel at 3 × 10^5 cells per mL and treated with medium containing VEGF (10 ng mL^−1) and either luteolin or one of the synthesised derivatives (at 1 μM or 10 μM). Plates were incubated for 12 h and photos covering the whole well area were taken using 4× magnification power of an inverted light microscope. Number of junctions, number and length of segments and master segments were quantified from the taken Images via the Angiogenesis Analyzer plugin[57] in ImageJ software.[58] […] Data was represented as a ratio to the positive control (VEGF enriched).

VEGF i-motif DNA [1] = assay: I-motif DNA binding, UV-visible absorbance; set-up: species or system human
Source text: (§1) I-motifs are four stranded antiparallel cytosine rich DNA sequences capable of forming at telomere and promotor regions of genomic DNA.[41,42] […] Due to the presence of potential i-motif forming sequences in 69% of promoter regions in human oncogenes, they are postulated to play a key role in oncogene expression regulation.[44] VEGF and c-myc i-motif sequences are prevalent in oncogene promotor regions in many cancers including breast cancer and as such their ligands have potential anticancer roles.[45] The natural flavonol, fisetin, is reported to specifically bind to VEGF i-motif DNA and regulate its function by stabilizing its hairpin structure.[31] […] In continuation of our investigation of the effects of Ru metal complexation on the different biological activities of flavonoids, interactions with VEGF and c-myc i-motif DNA were studied using UV-vis spectroscopic techniques. […] However, 2Ru's addition led to a 1 nm hypsochromic shift of VEGF i-motif absorbance maximum from 272 to 271 nm. On the other hand, addition of the 4-oxo flavone (1) and its Ru complex (1Ru) led to minor changes in λmax of both sequences that was hypochromic (5% and 3%) with VEGF and hyperchromic (2% and 5%) in case of c-myc (Fig. 8).
(§2) UV-visible absorbance measurements and DNA UV melting studies were performed on a Cary 300 C (Varian USA) UV-visible spectrophotometer. VEGF and c-myc i-motif DNA (5′-3′ sequences ([…]) and ([…]), respectively) were purchased from Sigma-Aldrich (Gillingham, UK) and used without further purification. Na cacodylate buffer (20 mM, pH 5.5) was used for both i-motifs. DNA concentrations were determined by measuring the absorbance at 260 nm after melting using the molar extinction coefficient supplied by the manufacturer. VEGF and c-myc i-motifs were prepared for experiments by diluting with buffer solution, annealed with or without the flavonoid at 95 °C for 5 min then gently cooled to room temperature. The stock solutions of the test compounds (20 mM) were prepared in 100% sterile DMSO. These stocks were then appropriately diluted with HPLC grade water and DMSO levels were maintained below 0.1% in the test concentrations.
(§3) UV-visible absorbance measurements and UV melting studies of either free i-motifs (VEGF or c-myc), free flavone (1, 1Ru, 2 or 2Ru) or both i-motif DNA and flavone (2 μM: 2 μM) were recorded using 1.0 cm matched quartz cuvettes. First spectra were recorded in the range of 200–500 nm to determine the relevant wavelength range were no peaks were observed above 320 nm. […] UV-visible absorbance was measured at 25 °C while melting curves were collected at a heating rate of 1 °C min^−1 from 20 to 90 °C. Tm was calculated by non-linear fitting of the sigmoidal curve obtained at 295 nm.

c-myc i-motif DNA [2] = assay: I-motif DNA binding, UV-visible absorbance; set-up: species or system human; conditions: DNA : flavonoid 2 μM : 2 μM, pH 5.5, 25 °C
Source text: as §1, §2, §3

VEGF i-motif DNA [3] = assay: I-motif DNA UV melting (thermal stability); format: binding, human; conditions: for Tm: VEGF i-motif with flavone at 1 : 1 ratio, 295 nm, free DNA 46 °C; for ΔTm: ΔTm = Tm (DNA-flavone) − Tm (DNA)
Source text: (§4) The effect of this set of flavones on VEGF and c-myc was further evaluated via thermal stability measurements. Stabilizing/destabilizing the promotor i-motif structures is often reported to regulate expression of the corresponding genes, which for VEGF and c-myc could have detrimental effects on cancer growth and propagation.[48] As observed in Fig. 9, effects of the test flavones on the thermal stability of the VEGF and c-myc i-motif sequences were generally marginal and in agreement with λmax chromophoric shifts. […] Compound 1 destabilized VEGF i-motif in contrast to stabilizing the c-myc one. This mirrored the trend of a higher chromophoric shift observed for flavone 1 with VEGF i-motif sequence that also differed in pattern (hypochromic) from the shift witnessed with the c-myc sequence (hyperchromic). These findings could indicate higher selectivity of the 4-oxo derivative (1) towards VEGF i-motif based on an intercalative binding mode especially that hypochromic shifts are reported with DNA intercalation.[49,50] […] In this regard, the highest i-motif activity seen for the parent flavonoids was switched from VEGF to c-myc with compound 1 and vice versa with compound 2 upon Ru chelation. This emphasizes the key role of the interplay between the substitution at position 4 and metal complexation on the interaction with biological targets.
as §2, §3

c-myc i-motif DNA [4] = assay: I-motif DNA UV melting (thermal stability); format: binding, human; conditions: for Tm: c-myc i-motif with flavone at 1 : 1 ratio, 295 nm, free DNA 45 °C; for ΔTm: c-myc i-motif, 1 : 1 ratio, ΔTm = Tm (DNA-flavone) − Tm (DNA)
Source text: as §4, §2, §3

[5] = DNA : flavonoid 2 μM : 2 μM, pH 5.5, 25 °C

Compound | tube formation inhibition activity (HUVECs) | overall tube formation inhibition (HUVECs; 10 μM, insignificant (p > 0.05)) [%] | hypochromic change at λmax (VEGF i-motif DNA [1]; [5]) [%] | hyperchromic shift (increase) at absorbance maximum λmax (c-myc i-motif DNA [2]) [%] | Tm (VEGF i-motif DNA [3]) [°C] | ΔTm (VEGF i-motif DNA [3]; VEGF i-motif, 1 : 1 ratio) [°C] | Tm (c-myc i-motif DNA [4]) [°C] | ΔTm (c-myc i-motif DNA [4]) [°C] | reduction in the number of junctions (HUVECs; 10 μM, p < 0.01) [%] | reduction in number and length of master segments (HUVECs; 10 μM, p < 0.05) [%] | hyperchromic shift (increase) at absorbance maximum λmax (VEGF i-motif DNA [1]; [5]) [%] | hypsochromic shift of absorbance maximum (VEGF i-motif DNA [1]; from 272 to 271 nm, 1 : 1 ratio) [nm] | decrease in the i-motif's transition temperature (Tm) (VEGF i-motif DNA [3]; VEGF i-motif, 1 : 1 ratio) [°C]
Cc1ccc(C(C)C)cc1.O=c1cc(-c2ccc(Cl)cc2)oc2cc(O)cc([O-])c12.[Cl-].[Ru+2] [1Ru, chlorido [(5-oxo-κO)-7-hydroxy-2-(4′-chlorophenyl)-4H-chromen-4-onato-κO] (η^6-p-cymene)ruthenium(II)] | total loss of their parents' tube formation inhibition activity | 22 | 3 | 5 | 47 | 1 | 48 | 3 |  |  |  |  | 
Cc1ccc(C(C)C)cc1.[Cl-].[O-]c1cc(O)cc2oc(-c3ccc(Cl)cc3)cc(=S)c12.[Ru+2] [2Ru, chlorido [(5-oxo-κO)-7-hydroxy-2-(4′-chlorophenyl)-4H-chromen-4-thionato-κO] (η^6-p-cymene)ruthenium(II)] | total loss of their parents' tube formation inhibition activity |  |  | 8 | 42 | −4 | 44 | −1 | 40 | 35 | 2 | 1 | 4
